Assay results as given in the supplement of paper PMC10307832.

Tests used:
Experiment in all cases: relative viability (nuclei count vs DMSO), 5 days (fraction); higher = more cells survive
[1] = compound: CC(O)(CS(=O)(=O)c1ccc(F)cc1)C(=O)Nc1ccc(C#N)c(C(F)(F)F)c1 [Bicalutamide] + Cc1cc(Nc2cc(N3CCN(C)CC3)nc(Sc3ccc(NC(=O)C4CC4)cc3)n2)n[nH]1 [Tozasertib] (partner 0.1 µM)
In short: (§1)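 Nuclei were stained with Hoechst during a one-step fixation (final 0.05% Triton X-100, 1% formaldehyde, 1 ug/ml Hoechst) carried out 5 days after dosing, then counted on 4× images. The cells, lung cancer lines in 1536-well plates, had been dosed by pin tool the day after seeding with one drug alone or a fixed anchor-drug dose plus five library-drug doses (not always all listed) in √10 steps. Relative viability is the nuclei count in treated wells divided by that in vehicle wells, and each value is the median of duplicate plates.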

[2] = compound: C(C(=O)C(=O)O)Br [Bromopyruvate] + O=C(CCCCCCC(=O)Nc1ccccc1)NO [Vorinostat] (partner 1 µM)
In short: as §1

Bicalutamide + Olaparib = compound: CC(O)(CS(=O)(=O)c1ccc(F)cc1)C(=O)Nc1ccc(C#N)c(C(F)(F)F)c1 [Bicalutamide] + O=C(c1cc(Cc2n[nH]c(=O)c3ccccc23)ccc1F)N1CCN(C(=O)C2CC2)CC1 [Olaparib] (partner 8 µM)
In short: as §1

[3] = compound: CC(O)(CS(=O)(=O)c1ccc(F)cc1)C(=O)Nc1ccc(C#N)c(C(F)(F)F)c1 [Bicalutamide] + CCNC(=O)c1noc(-c2cc(C(C)C)c(O)cc2O)c1-c1ccc(CN2CCOCC2)cc1 [Luminespib] (partner 0.01 µM)
In short: as §1

Cell Line: NCI-H2405
- relative viability ([1]; first compound 0.08 µM): 0.876
- relative viability ([1]; first compound 0.253 µM): 0.691
- relative viability ([1]; first compound 0.8 µM): 0.715
- relative viability ([1]; first compound 2.53 µM): 0.656
- relative viability ([2]; first compound 1 µM): 1.35
- relative viability ([2]; first compound 3.162 µM): 1.01
- relative viability ([2]; first compound 10 µM): 0.814
- relative viability ([2]; first compound 100 µM): 0.742
- relative viability (Bicalutamide + Olaparib; first compound 0.08 µM): 0.947
- relative viability (Bicalutamide + Olaparib; first compound 0.253 µM): 0.83
- relative viability (Bicalutamide + Olaparib; first compound 0.8 µM): 0.919
- relative viability (Bicalutamide + Olaparib; first compound 2.53 µM): 0.842
- relative viability ([3]; first compound 0.08 µM): 0.669
- relative viability ([3]; first compound 0.253 µM): 0.661
- relative viability ([3]; first compound 0.8 µM): 0.826
- relative viability ([3]; first compound 2.53 µM): 0.627

Cell Line: NCI-H2009
- relative viability ([1]; first compound 0.08 µM): 0.777
- relative viability ([1]; first compound 0.253 µM): 0.664
- relative viability ([1]; first compound 0.8 µM): 0.723
- relative viability ([1]; first compound 2.53 µM): 0.649
- relative viability ([2]; first compound 1 µM): 0.72
- relative viability ([2]; first compound 3.162 µM): 0.682
- relative viability ([2]; first compound 10 µM): 0.622
- relative viability ([2]; first compound 31.62 µM): 0.546
- relative viability ([2]; first compound 100 µM): 0.266
- relative viability (Bicalutamide + Olaparib; first compound 0.08 µM): 0.675
- relative viability (Bicalutamide + Olaparib; first compound 0.253 µM): 0.702
- relative viability (Bicalutamide + Olaparib; first compound 0.8 µM): 0.715
- relative viability (Bicalutamide + Olaparib; first compound 2.53 µM): 0.667
- relative viability ([3]; first compound 0.08 µM): 1.06
- relative viability ([3]; first compound 0.253 µM): 1.01
- relative viability ([3]; first compound 0.8 µM): 0.987
- relative viability ([3]; first compound 2.53 µM): 1.04

Cell Line: NCI-H441
- relative viability ([1]; first compound 0.08 µM): 0.496
- relative viability ([1]; first compound 0.253 µM): 0.689
- relative viability ([1]; first compound 0.8 µM): 0.631
- relative viability ([1]; first compound 2.53 µM): 0.585
- relative viability ([2]; first compound 1 µM): 0.828
- relative viability ([2]; first compound 3.162 µM): 0.856
- relative viability ([2]; first compound 10 µM): 0.761
- relative viability ([2]; first compound 31.62 µM): 0.623
- relative viability ([2]; first compound 100 µM): 0.607
- relative viability (Bicalutamide + Olaparib; first compound 0.08 µM): 0.639
- relative viability (Bicalutamide + Olaparib; first compound 0.253 µM): 0.609
- relative viability (Bicalutamide + Olaparib; first compound 0.8 µM): 0.626
- relative viability (Bicalutamide + Olaparib; first compound 2.53 µM): 0.481
- relative viability ([3]; first compound 0.08 µM): 0.291
- relative viability ([3]; first compound 0.253 µM): 0.377
- relative viability ([3]; first compound 0.8 µM): 0.356
- relative viability ([3]; first compound 2.53 µM): 0.411

Cell Line: PC-14
- relative viability ([1]; first compound 0.08 µM): 0.643
- relative viability ([1]; first compound 0.253 µM): 0.616
- relative viability ([1]; first compound 0.8 µM): 0.744
- relative viability ([1]; first compound 2.53 µM): 0.588
- relative viability ([2]; first compound 1 µM): 0.755
- relative viability ([2]; first compound 3.162 µM): 0.706
- relative viability ([2]; first compound 10 µM): 0.587
- relative viability ([2]; first compound 31.62 µM): 0.516
- relative viability ([2]; first compound 100 µM): 0.482
- relative viability (Bicalutamide + Olaparib; first compound 0.08 µM): 0.346
- relative viability (Bicalutamide + Olaparib; first compound 0.253 µM): 0.3
- relative viability (Bicalutamide + Olaparib; first compound 0.8 µM): 0.274
- relative viability (Bicalutamide + Olaparib; first compound 2.53 µM): 0.271
- relative viability ([3]; first compound 0.08 µM): 0.16
- relative viability ([3]; first compound 0.253 µM): 0.148
- relative viability ([3]; first compound 0.8 µM): 0.198
- relative viability ([3]; first compound 2.53 µM): 0.137

Cell Line: HARA
- relative viability ([1]; first compound 0.08 µM): 0.128
- relative viability ([1]; first compound 0.253 µM): 0.099
- relative viability ([1]; first compound 0.8 µM): 0.103
- relative viability ([1]; first compound 2.53 µM): 0.182
- relative viability ([2]; first compound 1 µM): 0.692
- relative viability ([2]; first compound 3.162 µM): 0.511
- relative viability ([2]; first compound 10 µM): 0.628
- relative viability ([2]; first compound 31.62 µM): 0.528
- relative viability ([2]; first compound 100 µM): 0.37
- relative viability (Bicalutamide + Olaparib; first compound 0.08 µM): 0.871
- relative viability (Bicalutamide + Olaparib; first compound 0.8 µM): 1.22
- relative viability (Bicalutamide + Olaparib; first compound 2.53 µM): 0.878
- relative viability ([3]; first compound 0.08 µM): 0.987
- relative viability ([3]; first compound 0.253 µM): 0.721
- relative viability ([3]; first compound 0.8 µM): 0.678
- relative viability ([3]; first compound 2.53 µM): 0.847

Cell Line: NCI-H1792
- relative viability (Bicalutamide + Olaparib; first compound 0.08 µM): 0.493
- relative viability (Bicalutamide + Olaparib; first compound 0.253 µM): 0.365
- relative viability (Bicalutamide + Olaparib; first compound 0.8 µM): 0.39
- relative viability (Bicalutamide + Olaparib; first compound 2.53 µM): 0.257
- relative viability ([3]; first compound 0.08 µM): 0.411
- relative viability ([3]; first compound 0.8 µM): 0.571
- relative viability ([3]; first compound 2.53 µM): 0.236

Cell Line: A549
- relative viability (Bicalutamide + Olaparib; first compound 0.08 µM): 0.355
- relative viability (Bicalutamide + Olaparib; first compound 0.253 µM): 0.353
- relative viability (Bicalutamide + Olaparib; first compound 0.8 µM): 0.42
- relative viability (Bicalutamide + Olaparib; first compound 2.53 µM): 0.302

Cell Line: NCI-H1563
- relative viability ([3]; first compound 0.08 µM): 0.529
- relative viability ([3]; first compound 0.253 µM): 0.552
- relative viability ([3]; first compound 0.8 µM): 0.567
- relative viability ([3]; first compound 2.53 µM): 0.515

Cell Line: HCC-78
- relative viability ([1]; first compound 0.08 µM): 0.43
- relative viability ([1]; first compound 0.253 µM): 0.351
- relative viability ([1]; first compound 0.8 µM): 0.472
- relative viability ([1]; first compound 2.53 µM): 0.347
- relative viability ([2]; first compound 1 µM): 0.493
- relative viability ([2]; first compound 3.162 µM): 0.443
- relative viability ([2]; first compound 10 µM): 0.444
- relative viability ([2]; first compound 31.62 µM): 0.404
- relative viability ([2]; first compound 100 µM): 0.427
- relative viability (Bicalutamide + Olaparib; first compound 0.08 µM): 0.709
- relative viability (Bicalutamide + Olaparib; first compound 0.253 µM): 0.651
- relative viability (Bicalutamide + Olaparib; first compound 0.8 µM): 0.889
- relative viability (Bicalutamide + Olaparib; first compound 2.53 µM): 0.766

Cell Line: IA-LM
- relative viability ([2]; first compound 1 µM): 0.964
- relative viability ([2]; first compound 3.162 µM): 0.975
- relative viability ([2]; first compound 10 µM): 1.15
- relative viability ([2]; first compound 31.62 µM): 0.861
- relative viability ([2]; first compound 100 µM): 0.696
- relative viability (Bicalutamide + Olaparib; first compound 0.08 µM): 0.959
- relative viability (Bicalutamide + Olaparib; first compound 0.253 µM): 0.738
- relative viability (Bicalutamide + Olaparib; first compound 0.8 µM): 1.08
- relative viability (Bicalutamide + Olaparib; first compound 2.53 µM): 0.943

Cell Line: NCI-H1703
- relative viability (Bicalutamide + Olaparib; first compound 0.08 µM): 0.431
- relative viability (Bicalutamide + Olaparib; first compound 0.253 µM): 0.387
- relative viability (Bicalutamide + Olaparib; first compound 0.8 µM): 0.391
- relative viability (Bicalutamide + Olaparib; first compound 2.53 µM): 0.231

Cell Line: NCI-H1648
- relative viability ([1]; first compound 0.253 µM): 0.496
- relative viability ([1]; first compound 0.8 µM): 0.602
- relative viability ([1]; first compound 2.53 µM): 0.358
- relative viability ([2]; first compound 1 µM): 0.324
- relative viability ([2]; first compound 3.162 µM): 0.566
- relative viability ([2]; first compound 10 µM): 0.563
- relative viability ([2]; first compound 31.62 µM): 0.766
- relative viability ([2]; first compound 100 µM): 0.314
- relative viability (Bicalutamide + Olaparib; first compound 0.8 µM): 0.775
- relative viability (Bicalutamide + Olaparib; first compound 2.53 µM): 0.949
